From patent US20240288345A1, “FLUORESCENT STAINING METHOD” (OSAKA UNIVERSITY, priority 2022, published 2024)
Entries after “also recorded” stand apart in the source; their conditions may differ. Read-outs that look alike come from different tables or passages of the source.

Experiments:
[1] = system: human colonic mucosal tissue; assay: Clearing and whole-mount 3D fluorescent staining of human colonic mucosal tissue (Test Example B); details: for Staining property for a sample having a thickness after clearing treatment: summary of Examples and Test Examples; for 3D imaging signal of cleared tissue: CUBIC clearing, periodic acid, 50 μM, 2-3 days, excitation 488 nm
Procedure: CUBIC-L and CUBIC-R+reagents (T3740 and T3741, Tokyo Chemical Industry Co., Ltd.) were used in tissue clearing. Atissue removal procedure is simply described below.
A formaldehyde-fixed tissue specimen was washed with PBS, and was subsequently immersed in a 50% (v/v) CUBIC-L reagent (mixture containing water and the CUBIC-L reagent at 1:1) overnight. Further, the specimen was immersed in the CUBIC-L reagent at 37° C. for 5 days or 6 days while being gently shaken. Next, each of those specimens was washed with PBS, was immersed in 30% (w/v) of sucrose in the PBS, and was frozen in O.C.T. COMPOUND at −80° C. overnight. […] After having been washed with PBS, the specimen was stained by being gently shaken at room temperature for 2 days or 3 days together with FAM hydrazide, 5-isomer (50 μM), Compound 1 (50 μM), Alexa Fluor 488 hydrazide (50 µM), BDP FL hydrazide ([…]), or fluorescein (50 µM) in PBS containing 0.5% (v/v) of Triton X-100 (12967, Nacalai Tesque, Inc.). When nuclear counterstaining was performed, propidium iodide (PI) (10 μg/mb, P21493, Life Technologies Corporation) or RedDot-2 (1:100, 40061-T, Biotium, Inc.) was also added to the staining solution. After the staining step, the specimen was washed with PBS, and was immersed in a 50% (v/v) CUBIC-R+reagent (mixture containing water and the CUBIC-R+reagent at 1:1) overnight. Further, the specimen was immersed in the CUBIC-R+reagent for 1 day or 2 days while being gently shaken. A cleared tissue specimen thus obtained was subjected to 3D imaging with a confocal fluorescence microscope or a light-sheet fluorescence microscope. A wavelength of 488 nm was applied as the excitation wavelength of each of FAM hydrazide, Compound 1, Alexa Fluor 488 hydrazide, BDP FL hydrazide, and fluorescein, and the fluorescence detection wavelength range of each of these materials was from 490 nm to 562 nm.
A 3D image was obtained by using a confocal microscope (Zeiss LSM880 Confocal/Multiphoton, Carl Zeiss AG) or a light-sheet fluorescence microscope (Zeiss Lightsheet 7, Carl Zeiss AG), All pieces of raw image data were reconstructed and analyzed with Imaris software (version 9.2.1, Bitplane Inc.).
A human colonic mucosal tissue after its formalin fixation, which had been excised into a square about 4 mm on a side, was subjected to clearing treatment and to whole-mount 3D tissue staining through use of FAM hydrazide, Alexa Fluor 488 hydrazide, BDP FL hydrazide, or fluorescein as a stain.

[2] = system: basement membrane of a renal glomerulus; assay: Staining of basement membrane of renal glomerulus (Example 5); details: staining as for colonic section
Procedure: (§1) Specifically, the human colonic mucosal tissue sample after the formalin fixation was sufficiently washed with PBS, and was then immersed in PBS containing 30% (w/v) of sucrose, followed by the production of a frozen block with TISSUE-TEK O. C. T. COMPOUND. The frozen block was sliced into a thickness of 8 μm to produce a frozen section. The frozen section was washed with PBS, and was then stained with a solution, which had been obtained by diluting DAF-2 ([…]) or Compound 2 (50 μM) with PBS, at room temperature for 1 day. After that, the stained product was sufficiently washed with PBS. Then, the washed product was mounted with a water-soluble mounting medium, and an image thereof was taken with a confocal microscope.

[3] = Fluorescence spectra before and after addition of propionaldehyde; format: physicochemical; details: 0.02 mmol/L in 10 mmol/L sodium phosphate buffer pH 7.4; propionaldehyde 0.10 mmol/L; room temperature 4 days
Procedure: Propionaldehyde was added to a 10 mmol/L sodium phosphate buffer (pH: 7.4) containing 0. 02 mmol/L of each of DAF-2 and Compound 2 so that its final concentration became 0.10 mmol/L, followed by stirring at room temperature for 4 days. The absorption and fluorescence spectra of each of the solutions before the addition of the aldehyde and after the addition were measured.

[4] = system: colonic mucosal epithelium; assay: Staining combined with CUBIC tissue clearing, 3D imaging (Example 5); set-up: species or system human; details: CUBIC-L/CUBIC-R+ clearing, periodic acid pretreatment, 50 μM, room temperature 3 days
Procedure: Specifically, the human colonic mucosal tissue sample after the formalin fixation was sufficiently washed with PBS, and was then immersed in a solution, which had been obtained by diluting a CUBIC-L reagent with distilled water to 1/2, at 37° ° C. while being gently shaken. After that, the sample was immersed in the CUBIC-L reagent, and was treated at 37° C. while being gently shaken. During the treatment, the CUBIC-L reagent was replaced with a new one at an interval of once per 1 to 2 days. After that, the sample was sufficiently washed with PBS, and was then immersed in PBS containing 30% (w/v) of sucrose. After that, a frozen block of the Sample was produced by using TISSUE-TEK O.C.T. COMPOUND. The frozen block was thawed, and was then sufficiently washed with PBS and subjected to pretreatment with a […] aqueous solution of periodic acid, followed by staining with a solution, which had been obtained by diluting DAF-2 (50 μM) with PBS, at room temperature for 3 days. After that, the stained product was sufficiently washed with PBS, and was then immersed in a solution obtained by diluting a CUBIC-R+reagent with distilled water to 1/2, followed by gentle shaking at room temperature. After that, the resultant was immersed in the CUBIC-R+reagent at room temperature for 1 day while being gently shaken. An image of the resultant was taken with a confocal microscope. […]

[5] = 100 mM sodium phosphate buffer, pH 7.4, cited from earlier work
[6] = system: mucus of a goblet cell of colonic mucosa; assay: Staining of frozen sliced section of human colonic mucosal tissue (Example 5); details: 8 μm frozen section, 50 μM in PBS, room temperature 1 day, confocal microscope
Text: A fluorescent probe containing a diaminobenzene structure, such as DAF-2 or Compound 2, was examined for its staining property in the mucus of a goblet cell by using a frozen sliced section of a human colonic mucosal tissue as a positive control analyte. Specifically, a sliced frozen section was cut out of the colonic mucosal tissue after its formalin fixation, and was stained with a group of candidate fluorescent probes and washed with phosphate buffered saline. After that, an image of the section was taken with a confocal fluorescence microscope.
as §1

[7] = system: goblet cell mucus of human colorectal mucosal tissue; assay: Fluorescent staining of frozen sliced specimen of human colonic mucosa (Test Example A); details: for Fluorescent staining signal in goblet cell mucus, sliced section: 10 μm frozen section, 0.5% periodic acid pretreatment, 50 μM overnight
Procedure: A tissue to be stained was washed with phosphate buffered saline (PBS), was immersed in 30% (w/v) of sucrose in the PBS, and was frozen in O.C.T. COMPOUND (45833, Sakura Finetek) at −80° ° C. overnight. The frozen tissue was cut into a thickness of 10 μm with a cryostat (CM3050 S, Leica Biosystems). The resultant frozen section was washed with PBS three times, and was subjected to pretreatment with a 0.5% solution of periodic acid (HIOA) (86171, MUTO PURE CHEMICALS CO., LTD.) at room temperature for 30 minutes. The section was washed with PBS three times, and was incubated in FAM hydrazide, 5-isomer((50 µM, 24170, BroadPharm, in this description, sometimes referred to as “FAM hydrazide”), Alexa Fluor 488 hydrazide (50 μM, A10436, ThermoFisher Scientific, Inc.), BDP FL hydrazide (50 μM, 11470, Lumiprobe Corporation), or fluorescein (50 µM, FUJIFILM Wako Pure Chemical Corporation) diluted with PBS at room temperature overnight. After that, the section was washed with PBS and an image thereof was obtained with a confocal microscope.
A section of a human colorectal mucosal tissue sampled from the non-tumor region of a surgical specimen of colorectal cancer was subjected to fluorescent staining through use of FAM hydrazide, Alexa Fluor 488 hydrazide, BDP FL hydrazide, or fluorescein serving as a fluorescent skeleton as a stain.

[8] = Light characteristics: molar extinction coefficient and quantum yield (Table 1); format: physicochemical; details: 10 mM sodium phosphate buffer, pH 7.4
Text: When propionaldehyde was caused to act on DAF-2 (product model number: SK1001-01, Goryo Chemical, Inc.), Compound 16 below was obtained. It was recognized that Compound 16 was fluorescent and its fluorescence intensity increased along with the formation of a benzimidazole ring. […] The formation of a covalent bond with the aldehyde enables detection by fluorescence emission.

| Fluorescence intensity after addition of the aldehyde compared to before [3] | Molecule | Staining property for a sample having a thickness after clearing treatment [1] | Visualization of basement membrane of renal glomerulus [2] | 3D imaging of colonic mucosal epithelium [4] | Staining of mucus of goblet cell of colonic mucosa [6] | 3D imaging signal of cleared tissue [1] | Fluorescent staining signal in goblet cell mucus, sliced section [7] | also measured |
| --- | --- | --- | --- | --- | --- | --- | --- | --- |
| increase | Nc1cc(C(=O)O)c(-c2c3ccc(=O)cc-3oc3cc(O)ccc23)cc1N [DAF-2] | significantly excellent | clearly visualized | enabled the 3D imaging | clearly stained |  |  | Quantum yield [5]: 0.005; λabs [5]: 486 nm; Molar extinction coefficient ([5]; in M-1 cm-1 (unit assumed)): 79,000 |
| increase | Cc1cc(N)c(N)cc1-c1c2ccc(=O)cc-2oc2cc(O)ccc12 [Compound 2] | significantly excellent | clearly visualized | enabled the 3D imaging | clearly stained |  |  |  |
|  | Cc1cc(C)n2c1C=C1C=CC(CCC(=O)NN)=[N+]1[B-]2(F)F.Cl [BDP FL hydrazide] | insufficient |  |  |  | weak | weak |  |
|  | Alexa Fluor 488 hydrazide | insufficient |  |  |  | weak | clear positive image; also recorded: clear staining | Fluorescent staining signal without oxidation treatment with HIO4, sliced section ([7]; no HIO4 oxidation): not obtained |
|  | CCc1nc2cc(C(=O)O)c(-c3c4ccc(=O)cc-4oc4cc(O)ccc34)cc2[nH]1 [Compound 16] |  |  |  |  |  |  | Quantum yield [8]: 0.85; λabs [8]: 489 nm; Molar extinction coefficient ([8]; in M-1 cm-1 (unit assumed)): 63,000 |
